Earlier results in patent publication US20070212388A1, “COMPOSITIONS COMPRISING POROUS ARTICLES AND USES IN IMPLANTABLE MEDICAL DEVICES” (Sahajanand Medical Technologies Pvt. Ltd., priority 2006, published 2007).

Details: for solubility in water: general statement, no test described

Compound | solubility in water | water solubility relative to genistein (compared with genistein)
O=c1c(-c2ccc(O)cc2)coc2cc(O)cc(O)c12 [Genistein, 5,7-dihydroxy-3-(4-hydroxyphenyl)-4H-1-benzopyran-4-one] | practically insoluble in water | –
O=c1c(-c2ccc(O)cc2)coc2cc(O[C@@H]3O[C@H](CO)[C@@H](O)[C@H](O)[C@H]3O)cc(O)c12 [Genistin] | – | greater water solubility than genistein
O=c1c(O)c(-c2ccc(O)c(O)c2)oc2cc(O)cc(O)c12 [Quercetin, 2-(3,4-dihydroxyphenyl)-3,5,7-trihydroxy-4H-1-benzopyran-4-one] | practically insoluble in water | –
